The numbers were not newly measured in patent US5419315A, “Intrapulmonary delivery of hormones” (Aradigm Corporation, priority 1994, dated 1995), which cites them from elsewhere.

Where two headings read alike, the source gives them in different places.

For the compound `NC(=O)CC[C@@H]1NC(=O)[C@H](Cc2ccccc2)NC(=O)[C@H](Cc2ccc(O)cc2)NC(=O)CCSSC[C@@H](C(=O)N2CCC[C@H]2C(=O)N[C@H](CCCN=C(N)N)C(=O)NCC(N)=O)NC(=O)[C@H](CC(N)=O)NC1=O` [Desmopressin], the “Bioavailability (%)” value (in vivo) is 10%.

Consider `CCNC(=O)[C@@H]1CCCN1C(=O)[C@H](CCCNC(=N)N)NC(=O)[C@H](CC(C)C)NC(=O)[C@@H](CC(C)C)NC(=O)[C@H](Cc1ccc(O)cc1)NC(=O)[C@H](CO)NC(=O)[C@H](Cc1c[nH]c2ccccc12)NC(=O)[C@H](Cc1c[nH]cn1)NC(=O)[C@@H]1CCC(=O)N1` [Leuprolide], for which, where the note is “in vivo”, the “Bioavailability (%)” value was below 10% and the “bioavailability when administered intranasally” value is given as “relatively low”.

Regarding `CC(C)C[C@H](NC(=O)[C@@H](Cc1ccc2ccccc2c1)NC(=O)[C@H](Cc1ccc(O)cc1)NC(=O)[C@H](CO)NC(=O)[C@H](Cc1c[nH]c2ccccc12)NC(=O)[C@H](Cc1c[nH]cn1)NC(=O)[C@@H]1CCC(=O)N1)C(=O)N[C@@H](CCCNC(=N)N)C(=O)N1CCC[C@H]1C(=O)NCC(N)=O` [Nafarelin], the “Bioavailability (%)” value (in vivo) is listed as 2%.

For `CC[C@H](C)[C@@H]1NC(=O)[C@H](Cc2ccc(O)cc2)NC(=O)[C@@H](N)CSSC[C@@H](C(=O)N2CCC[C@H]2C(=O)N[C@@H](CC(C)C)C(=O)NCC(N)=O)NC(=O)[C@H](CC(N)=O)NC(=O)[C@H](CCC(N)=O)NC1=O` [Oxytocin], the “Bioavailability (%)” value (intranasal (nasal delivery)) is on record as 1%.

Turning to `C[C@H](N)C(=O)NCC(=O)N[C@H]1CSSC[C@@H](C(=O)O)NC(=O)[C@H](CO)NC(=O)[C@H]([C@@H](C)O)NC(=O)[C@H](Cc2ccccc2)NC(=O)[C@H]([C@@H](C)O)NC(=O)[C@H](CCCCN)NC(=O)[C@H](Cc2c[nH]c3ccccc23)NC(=O)[C@H](Cc2ccccc2)NC(=O)[C@H](Cc2ccccc2)NC(=O)[C@H](CC(N)=O)NC(=O)[C@H](CCCCN)NC1=O` [Somatostatin], for the setting “intranasal (nasal delivery)”, the “Bioavailability (%)” value was 75%.

As for Calcitonin, the “Bioavailability (%)” value (intranasal (nasal delivery)) is below 1%.

With “GHRH (YADAIFTNSYRKVLGQLSARKLLQDIMSRQQGESNQERGA; Somatoliberin; UniProt P01286 32-71, looked up, fragment)”, the “Bioavailability (%)” value (intranasal (nasal delivery)) is below 1%.

Consider Glucagon, for which the “Bioavailability (%)” value (intranasal (nasal delivery)) is below 1%.

For the compound Growth hormone, the “Bioavailability (%)” value (intranasal (nasal delivery)) is below 1%.

With LHRH, where the note is “in vivo”, the “Bioavailability (%)” value is listed as 1.5%.

For Secretin, the “Bioavailability (%)” value (in vivo) was 10%.
